The values that follow come from US9193699B2, “Apoptosis inducing compounds” (INSTITUT NATIONAL DE LA SANTE ET DE LA RECHERCHE MEDICALE …, priority 2011, dated 2015).

Test [1] concerns Human breast tumor SUM149 cells. The experiment in a line: Inhibition of tumor cell growth (alamar blue), SUM149. Format: cell-based. To be noted: 120 h, calculated on the basis of cell growth inhibition, day 5, alamar blue, read-out: IC50 for the inhibition of SUM149 tumor cells growth. As to the method: (§1) All biological experiments (Examples 2 to 9) have been performed with recommended cell line specific culture medium. For SUM149 and L226, culture medium is supplemented with 10% Fetal Calf Serum. For HME-1 and MCF-10A, culture medium is supplemented with 5% Horse Serum.
Human breast tumor SUM149 cells (Inflammatory Breast Cancer (IBC) of basal subtype) were plated in a 96 well plate at 3000 cells/100 μL at 37° C. in 5% CO2. Compounds 1, 3, 4, 5, 6, 7, 8, 9, 10, 11, 12, 13, 14 at 10 μM were added at day 0 and day 3. The number of viable cells was determined in triplicate at day 5 by incubating 10 μL of the alamar blue staining solution for 2 hours at 37° C. (FIG. 1).
Human breast tumor SUM149 cells were plated in a 96 well plate at 3000 cells/100 μL at 37° C. in 5% CO2. Serial dilutions of drugs (compounds 1, 3 or 4) ranging from 20 μM to 300 nM were added at day 0 and day 3. The number of viable cells was determined in triplicate at day 5 by incubating 10 μL of the alamar blue staining solution for 2 hours at 37° C. (FIG. 2).
IC50 values of compounds 1-14 for the inhibition of SUM149 and L226 tumor cells growth were measured (according to the experimental procedure of Examples 2 and 3):
Human breast tumor SUM149 cells were plated in a 96 well plate at 3000 cells/100 μL at 37° C. in 5% CO2 in recommended medium containing 10% FCS or in synthetic medium without FCS. Serial dilutions of drug (compound 4) ranging from 10 μM to 0.16 μM were added at day 0 and day 3. The number of viable cells was determined in triplicate at day 5 by incubating 10 μL of the alamar blue staining solution for 2 hours at 37° C. (FIG. 11). The […] in recommended medium containing 10% FCS was measured at 2 μM, while it was measured at 0.6 μM without FCS.

Test [2] has as its system Human breast tumor L226 cells. The experiment in a line: Inhibition of tumor cell growth (alamar blue), L226. In kind it is cell-based. As to conditions: 120 h, calculated on the basis of cell growth inhibition, day 5, alamar blue. As to the method:
as §1
Human breast tumor L226 cells (Inflammatory Breast Cancer (IBC) of ERB-B2 subtype) were plated in a 96 well plate at 3000 cells/100 μL at 37° C. in 5% CO2. Serial dilutions of drugs (compounds 1, 3 or 4) ranging from 20 μM to 300 nM were added at day 0 and day 3. The number of viable cells was determined in triplicate at day 5 by incubating 10 μL of the alamar blue staining solution for 2 hours at 37° C. (FIG. 3).
IC50 values of compounds 1-14 for the inhibition of SUM149 and L226 tumor cells growth were measured (according to the experimental procedure of Examples 2 and 3): […]

Test [3] concerns Human normal mammary epithelial MCF-10A cells. Nature of the test: Effect on growth of normal cells (alamar blue), MCF-10A. As to conditions: calculated on the basis of cell growth inhibition. In kind it is cell-based. As to the method: as §1
Human normal mammary epithelial MCF-10A cells were plated in a 96 well plate at 3000 cells/100 μL at 37° C. in 5% CO2. Serial dilutions of drugs (compounds 1, 3 or 4) ranging from 20 μM to 300 nM were added at day 0 and day 3. The number of viable cells was determined in triplicate at day 5 by incubating 10 μL of the alamar blue staining solution for 2 hours at 37° C. (FIG. 5).
(§2) IC50 values of compounds 1-14 for the inhibition of MCF-10A and HME-1 normal cells growth were also measured (according to the experimental procedure of Examples 4 and 5): […]

Test [4] deals with Human normal mammary epithelial HME-1 cells. Nature of the test: Effect on growth of normal cells (alamar blue), HME-1. As to conditions: HME1, calculated on the basis of cell growth inhibition. Format: cell-based. As to the method:
as §1
Human normal mammary epithelial HME-1 cells were plated in a 96 well plate at 3000 cells/100 μL at 37° C. in 5% CO2. Serial dilutions of drugs (compounds 1, 3 or 4) ranging from 20 μM to 300 nM were added at day 0 and day 3. The number of viable cells was determined in triplicate at day 5 by incubating 10 μL of the alamar blue staining solution for 2 hours at 37° C. (FIG. 4).
as §2

The subject of test [5] is caspase-3 and caspase-7 in SUM149 cells. Nature of the test: Caspase 3/7 activation (Caspase-Glo 3/7) in SUM149 tumor cells. Format: cell-based. To be noted: Homo sapiens, R=RLU at 20 μM/RLU at 0 μM, 24 h, read-out: Caspase 3/7 activation R (RLU fold increase from untreated cells). As to the method:
Human breast tumor SUM149 cells were plated in a 96 well plate at 10000 cells/100 μL at 37° C. in 5% CO2. Serial dilutions of drugs (compounds 1, 3 or 4) ranging from 20 μM to 300 nM were added at day 0. Active caspase-3 and caspase-7 were measured in triplicate after 24 h treatment by incubating 50 μL of the Caspase-Glo 3/7 reagent for 60 min at 25° C. This reagent containing the proluminescent tetrapeptide sequence DEVD in a cell lysis buffer (Promega) (FIG. 6).
(§3) Caspase 3/7 activation in SUM149 and L226 tumor cells was measured.
(§4) The calculated values R correspond to Relative Luminescence Units (RLU) fold increase from untreated cells (R=RLU at 20 μM/RLU at 0 μM).

Test [6] deals with caspase-3 and caspase-7 in L226 cells. The experiment in a line: Caspase 3/7 activation (Caspase-Glo 3/7) in L226 tumor cells. As to conditions: Homo sapiens, R=RLU at 20 μM/RLU at 0 μM, 24 h, read-out: Caspase 3/7 activation R (RLU fold increase from untreated cells). In kind it is cell-based. As to the method:
Human breast tumor L226 cells were plated in a 96 well plate at 10000 cells/100 μL at 37° C. in 5% CO2. Serial dilutions of drugs (compounds 1, 3 or 4) ranging from 20 μM to 300 nM were added at day 0. Active caspase-3 and caspase-7 were measured in triplicate after 24 h treatment by incubating 50 μL of the Caspase-Glo 3/7 reagent for 60 min at 25° C. This reagent containing the proluminescent tetrapeptide sequence DEVD in a cell lysis buffer (Promega) (FIG. 7).
as §3, §4

In test [7] the test system is caspase-3 and caspase-7 in MCF-10A cells. The experiment in a line: Caspase 3/7 activation (Caspase-Glo 3/7) in MCF-10A normal cells. Format: cell-based. As to conditions: Homo sapiens, R=RLU at 20 μM/RLU at 0 μM, 24 h, read-out: Caspase 3/7 activation R (RLU fold increase from untreated cells). As to the method:
Human normal mammary epithelial MCF-10A cells were plated in a 96 well plate at 10000 cells/100 μL at 37° C. in 5% CO2. Serial dilutions of drugs (compounds 1, 3 or 4) ranging from 20 μM to 300 nM were added at day 0. Active caspase-3 and caspase-7 were measured in triplicate after 24 h treatment by incubating 50 μL of the Caspase-Glo 3/7 reagent for 60 min at 25° C. This reagent containing the proluminescent tetrapeptide sequence DEVD in a cell lysis buffer (Promega) (FIG. 9).
as §4
(§5) Caspase 3/7 activation in MCF-10A and HME-1 normal cells was also measured.

In test [8] the test system is caspase-3 and caspase-7 in HME-1 cells. The experiment in a line: Caspase 3/7 activation (Caspase-Glo 3/7) in HME-1 normal cells. Format: cell-based. As to conditions: Homo sapiens, HME1, R=RLU at 20 μM/RLU at 0 μM, 24 h, read-out: Caspase 3/7 activation R (RLU fold increase from untreated cells). As to the method: Human normal mammary epithelial HME-1 cells were plated in a 96 well plate at 10000 cells/100 μL at 37° C. in 5% CO2. Serial dilutions of drugs (compounds 1, 3 or 4) ranging from 20 μM to 300 nM were added at day 0. Active caspase-3 and caspase-7 were measured in triplicate after 24 h treatment by incubating 50 μL of the Caspase-Glo 3/7 reagent for 60 min at 25° C. This reagent containing the proluminescent tetrapeptide sequence DEVD in a cell lysis buffer (Promega) (FIG. 8).
as §4, §5

Test [9] has as its system Human breast tumor SUM149 cells. The experiment in a line: Annexin V/7-AAD apoptosis with or without Z-VAD-FMK. In kind it is cell-based. As to conditions: 2.5 to 20 μM, 48 h, with Z-VAD-FMK pan-caspases inhibitor. As to the method:
Human breast tumor SUM149 cells were plated in dishes at a concentration of 10^6 cells/[…] Cells were treated with compound 3 or compound 4 (2.5 to 20 μM) for 48 h, with or without Z-VAD-FMK, a pan-caspases inhibitor. Cells were double stained with annexinV-FITC and 7-AAD to measure cell apoptosis.

Test [10] concerns tumors derived from MMTC-ErbB2/neu mice. Nature of the test: TUNEL assay of tumor apoptosis in MMTV-ErB2/Neu mice. In kind it is in vivo. As to conditions: 100 mg/kg for 30 days. As to the method: DNA fragmentation in apoptotic cells was analyzed by the TUNEL assay (ApopTag detection kit, Millipore) as recommended by the manufacturer.
Briefly, 4 μm sections of paraffin-embedded fixed tissue from tumors derived from MMTC-ErbB2/neu mice treated with vehicle or with Compound 12, 4 or 8 (100 mg/kg) for 30 days, were deparaffined with successive histolemon and ethanol washes, then treated with 20 μg/mL proteinase K for 15 min at room temperature. Endogenous peroxidise was quenched with 3% hydrogen peroxide. […] Coloration was performed using the diaminobenzidine mixed substrate (Dako). Counterstaining was done with a solution of 1% methyl green for 5 min at room temperature. After distilled water and N-butanol washes, specimens were mounted in Pertex medium (CellPath). Observations were made using the Leica DMD108 digital microimaging device (Leica Microsystems GmbH).

As to `CC(C)c1ccc(S(=O)(=O)N2CCSC(C)(C)[C@@H]2C(=O)NO)cc1` [Compound 3, (3S)—N-hydroxy-4-[(4-isopropylphenyl)sulfonyl]-2,2-dimethyl-3-thiomorpholine carboxamide], the IC50 (usually the concentration at which inhibition is half-maximal) was 2.5 µM in test [1], 2.5 µM in test [2], greater than 20 µM in [3] and greater than 20 µM in test [4]. Besides, the fold induction at 20 µM in [5] is 6.3; in test [6] it was 2.1; in [7], 1; in [8], 1. Also, the “effect of Z-VAD treatment on compound induced apoptosis (Annexin V positive cells)” value in [9] is “fully impaired”.

For the molecule `CCc1ccc(S(=O)(=O)N2CCSC(C)(C)[C@@H]2C(=O)NO)cc1` [Compound 8, (3S)—N-hydroxy-4-[(4-ethylphenyl)sulfonyl]-2,2-dimethyl-3-thiomorpholine carboxamide], the IC50 was 7.5 µM in [1], 5 µM in test [2], greater than 20 µM in [3] and greater than 20 µM in test [4]. Moreover, the figures for the fold induction at 20 µM in test [5] and in test [6] were 5.7 and 2.3, respectively. In addition, in test [10], the “percentage of cells having TdT positive nuclei in tumors” value is “rare”.
